According to BindingDB's records for doi:10.1021/jm0704595 (University of Turin, 2007):
Values joined by “and” are separate entries in the source; they are usually repeats but may differ in a detail not shown here. Identical values can stand only once.

Test: Agonist activity at adrenergic beta2 receptor in guinea pig tracheal rings assessed as myorelaxing activity on carbachol-induced contraction in presence of propranolol

With `Cc1c(COc2ccc(CC(C)NCC(O)c3cc(O)cc(O)c3)cc2)no[n+]1[O-]` (stereo unspecified) [5-(1-hydroxy-2-{1-methyl-2-[4-(4-methyl-5-oxy-furazan-3-ylmethoxy)-phenyl]-ethylamino}-ethyl)-benzene-1,3-diol] the EC50 was 55 µM and 54 µM.
